These compounds were tested on DLD-1 BRCA2(−/−) Cell (assay: Cell viability assay (Resazurin) in DLD1-BRCA2 cells). Conditions: Homo sapiens, DLD-1, 336 h, 14 days, 1,500 cells/well, final DMSO 1%.
Assay type: cell-based
Summary of the method: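 DLD1-BRCA2 KG cells seeded at 1,500/well (parental 600/well) in RPMI-1640 with 10% FBS, compound added after 4 h (1% DMSO), media replaced every 3-4 days over 14 days at 37° C. Viability read by resazurin (0.1 mg/ml, 4 h) fluorescence at Ex/Em 560/590 nm; IC50 fitted.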

Row | SMILES | IC50
1 | Cc1cc(C(F)(F)F)cc(N2[C@H](C(=O)N(CC#Cc3cnc(-n4ccnn4)cn3)c3ccc(F)c(C)c3)CCS2(=O)=O)n1 [Example 57, (S)-N-(3-(5-(1H-1,2,3-triazol-1-yl)pyrazin-2-yl)prop-2-yn-1-yl)-N-(4-fluoro-3-methylphenyl)-2-(6-methyl-4-(trifluoromethyl)pyridin-2-yl)isothiazolidine-3-carboxamide 1,1-dioxide] | < 1 µM
2 | Cc1cc(C(F)(F)F)cc(N2[C@H](C(=O)N(CC#Cc3cnc(-c4ncon4)cn3)c3ccc(F)c(C)c3)CCS2(=O)=O)n1 [Example 58, (S)-N-(3-(5-(1,2,4-oxadiazol-3-yl)pyrazin-2-yl)prop-2-yn-1-yl)-N-(4-fluoro-3-methylphenyl)-2-(6-methyl-4-(trifluoromethyl)pyridin-2-yl)isothiazolidine-3-carboxamide 1,1-dioxide] | < 1 µM
3 | Cc1cc(C(F)(F)F)cc(N2[C@H](C(=O)N(CC#Cc3cnc(C#N)cn3)c3ccc(F)c(C)c3)CCS2(=O)=O)n1 [Example 59, (S)-N-(3-(5-cyanopyrazin-2-yl)prop-2-yn-1-yl)-N-(4-fluoro-3-methylphenyl)-2-(6-methyl-4-(trifluoromethyl)pyridin-2-yl)isothiazolidine-3-carboxamide 1,1-dioxide] | < 1 µM
4 | Cc1cc(C(F)(F)F)cc(N2[C@H](C(=O)N(CC#Cc3cnc(C(=O)O)cn3)c3ccc(F)c(C)c3)CCS2(=O)=O)n1 [Example 60, (S)-5-(3-(N-(4-fluoro-3-methylphenyl)-2-(6-methyl-4-(trifluoromethyl)pyridin-2-yl)-1,1-dioxidoisothiazolidine-3-carboxamido)prop-1-yn-1-yl)pyrazine-2-carboxylic acid] | > 5.1 µM
5 | Cc1cc(C(F)(F)F)cc(N2[C@H](C(=O)N(CC#Cc3cnc(C(N)=O)cn3)c3ccc(F)c(C)c3)CCS2(=O)=O)n1 [Example 61, (S)-N-(3-(5-carbamoylpyrazin-2-yl)prop-2-yn-1-yl)-N-(4-fluoro-3-methylphenyl)-2-(6-methyl-4-(trifluoromethyl)pyridin-2-yl)isothiazolidine-3-carboxamide 1,1-dioxide] | > 5.1 µM
6 | Cc1cc(C(F)(F)F)cc(N2[C@H](C(=O)N(CC#Cc3cnc(C(N)=O)c(C)n3)c3ccc(F)c(C)c3)CCS2(=O)=O)n1 [Example 62, (S)-N-(3-(5-carbamoyl-6-methylpyrazin-2-yl)prop-2-yn-1-yl)-N-(4-fluoro-3-methylphenyl)-2-(6-methyl-4-(trifluoromethyl)pyridin-2-yl)isothiazolidine-3-carboxamide 1,1-dioxide] | < 1 µM
7 | Cc1cc(C(F)(F)F)cc(N2[C@H](C(=O)N(CC#Cc3cncc(C(N)=O)n3)c3ccc(F)c(C)c3)CCS2(=O)=O)n1 [Example 63, (S)-N-(3-(6-carbamoylpyrazin-2-yl)prop-2-yn-1-yl)-N-(4-fluoro-3-methylphenyl)-2-(6-methyl-4-(trifluoromethyl)pyridin-2-yl)isothiazolidine-3-carboxamide 1,1-dioxide] | < 1 µM
8 | Cc1cc(C(F)(F)F)cc(N2[C@H](C(=O)N(CC#Cc3nccnc3C(N)=O)c3ccc(F)c(C)c3)CCS2(=O)=O)n1 [Example 64, (S)-N-(3-(3-carbamoylpyrazin-2-yl)prop-2-yn-1-yl)-N-(4-fluoro-3-methylphenyl)-2-(6-methyl-4-(trifluoromethyl)pyridin-2-yl)isothiazolidine-3-carboxamide 1,1-dioxide] | < 1 µM
9 | Cc1cc(C(F)(F)F)cc(N2[C@H](C(=O)N(CC#Cc3cnc(S(N)(=O)=O)cn3)c3ccc(F)c(C)c3)CCS2(=O)=O)n1 [Example 65, (S)-N-(4-fluoro-3-methylphenyl)-2-(6-methyl-4-(trifluoromethyl)pyridin-2-yl)-N-(3-(5-sulfamoylpyrazin-2-yl)prop-2-yn-1-yl)isothiazolidine-3-carboxamide 1,1-dioxide] | < 1 µM
10 | Cc1cc(C(F)(F)F)cc(N2[C@H](C(=O)N(CC#Cc3cncc(S(N)(=O)=O)n3)c3ccc(F)c(C)c3)CCS2(=O)=O)n1 [Example 66, (S)-N-(4-fluoro-3-methylphenyl)-2-(6-methyl-4-(trifluoromethyl)pyridin-2-yl)-N-(3-(6-sulfamoylpyrazin-2-yl)prop-2-yn-1-yl)isothiazolidine-3-carboxamide 1,1-dioxide] | < 1 µM
11 | CNC(=O)c1cnc(C#CCN(C(=O)[C@@H]2CCS(=O)(=O)N2c2cc(C(F)(F)F)cc(C)n2)c2ccc(F)c(C)c2)cn1 [Example 67, (S)-N-(4-fluoro-3-methylphenyl)-2-(6-methyl-4-(trifluoromethyl)pyridin-2-yl)-N-(3-(5-(methylcarbamoyl)pyrazin-2-yl)prop-2-yn-1-yl)isothiazolidine-3-carboxamide 1,1-dioxide] | > 5.1 µM
12 | Cc1cc(C(F)(F)F)cc(N2[C@H](C(=O)N(CC#Cc3cnc(C(=O)N(C)C)cn3)c3ccc(F)c(C)c3)CCS2(=O)=O)n1 [Example 68, (S)-N-(3-(5-(dimethylcarbamoyl)pyrazin-2-yl)prop-2-yn-1-yl)-N-(4-fluoro-3-methylphenyl)-2-(6-methyl-4-(trifluoromethyl)pyridin-2-yl)isothiazolidine-3-carboxamide 1,1-dioxide] | < 1 µM
13 | Cc1cc(C(F)(F)F)cc(N2[C@H](C(=O)N(CC#Cc3cnc(C(=O)N4CCOCC4)cn3)c3ccc(F)c(C)c3)CCS2(=O)=O)n1 [Example 69, (S)-N-(4-fluoro-3-methylphenyl)-2-(6-methyl-4-(trifluoromethyl)pyridin-2-yl)-N-(3-(5-(morpholine-4-carbonyl)pyrazin-2-yl)prop-2-yn-1-yl)isothiazolidine-3-carboxamide 1,1-dioxide] | < 1 µM
14 | Cc1cc(C(F)(F)F)cc(N2[C@H](C(=O)N(CC#Cc3cncc(C(=O)N4CCOCC4)n3)c3ccc(F)c(C)c3)CCS2(=O)=O)n1 [Example 70, (S)-N-(4-fluoro-3-methylphenyl)-2-(6-methyl-4-(trifluoromethyl)pyridin-2-yl)-N-(3-(6-(morpholine-4-carbonyl)pyrazin-2-yl)prop-2-yn-1-yl)isothiazolidine-3-carboxamide 1,1-dioxide] | 1.1 to 5 µM
15 | Cc1cc(C(F)(F)F)cc(N2[C@H](C(=O)N(CC#Cc3cncc(C(=O)N4CC5CCC(C4)O5)n3)c3ccc(F)c(C)c3)CCS2(=O)=O)n1 [Example 71, (3S)-N-(3-(6-(8-oxa-3-azabicyclo[3.2.1]octane-3-carbonyl)pyrazin-2-yl)prop-2-yn-1-yl)-N-(4-fluoro-3-methylphenyl)-2-(6-methyl-4-(trifluoromethyl)pyridin-2-yl)isothiazolidine-3-carboxamide 1,1-dioxide] | < 1 µM
16 | Cc1cc(C(F)(F)F)cc(N2[C@H](C(=O)N(CC#Cc3cncc(C(=O)N4CCNCC4)n3)c3ccc(F)c(C)c3)CCS2(=O)=O)n1 [Example 72, (S)-N-(4-fluoro-3-methylphenyl)-2-(6-methyl-4-(trifluoromethyl)pyridin-2-yl)-N-(3-(6-(piperazine-1-carbonyl)pyrazin-2-yl)prop-2-yn-1-yl)isothiazolidine-3-carboxamide 1,1-dioxide] | < 1 µM
17 | Cc1cc(C(F)(F)F)cc(N2[C@H](C(=O)N(CC#Cc3cncc(C(=O)N4CC5CCC(C4)N5)n3)c3ccc(F)c(C)c3)CCS2(=O)=O)n1 [Example 73, (3S)-N-(3-(6-(3,8-diazabicyclo[3.2.1]octane-3-carbonyl)pyrazin-2-yl)prop-2-yn-1-yl)-N-(4-fluoro-3-methylphenyl)-2-(6-methyl-4-(trifluoromethyl)pyridin-2-yl)isothiazolidine-3-carboxamide 1,1-dioxide] | < 1 µM

Reference: patent US20260297083A1, “SUBSTITUTED ACETYLENE COMPOUND DERIVATIVES AND THEIR PHARMACEUTICAL USE” (AVELOS THERAPEUTICS INC., priority 2023, published 2026)
